According to ChEMBL document CHEMBL6177932 (J Med Chem, 2024):
Calls of active or inactive are those of the source. The rule behind the calls is not given here.

Assays:
[1] = biological target: T1, Protein deacetylase HDAC6 (Mus musculus) (UniProt Q9Z2V5); assay: Inhibition of HDAC6 in mouse 4TO7 cells assessed as induction of tubulin acetylation at 10 uM measured after 6 hrs by Western blot analysis; assay type: cell-based
T1 sequence (whole entry): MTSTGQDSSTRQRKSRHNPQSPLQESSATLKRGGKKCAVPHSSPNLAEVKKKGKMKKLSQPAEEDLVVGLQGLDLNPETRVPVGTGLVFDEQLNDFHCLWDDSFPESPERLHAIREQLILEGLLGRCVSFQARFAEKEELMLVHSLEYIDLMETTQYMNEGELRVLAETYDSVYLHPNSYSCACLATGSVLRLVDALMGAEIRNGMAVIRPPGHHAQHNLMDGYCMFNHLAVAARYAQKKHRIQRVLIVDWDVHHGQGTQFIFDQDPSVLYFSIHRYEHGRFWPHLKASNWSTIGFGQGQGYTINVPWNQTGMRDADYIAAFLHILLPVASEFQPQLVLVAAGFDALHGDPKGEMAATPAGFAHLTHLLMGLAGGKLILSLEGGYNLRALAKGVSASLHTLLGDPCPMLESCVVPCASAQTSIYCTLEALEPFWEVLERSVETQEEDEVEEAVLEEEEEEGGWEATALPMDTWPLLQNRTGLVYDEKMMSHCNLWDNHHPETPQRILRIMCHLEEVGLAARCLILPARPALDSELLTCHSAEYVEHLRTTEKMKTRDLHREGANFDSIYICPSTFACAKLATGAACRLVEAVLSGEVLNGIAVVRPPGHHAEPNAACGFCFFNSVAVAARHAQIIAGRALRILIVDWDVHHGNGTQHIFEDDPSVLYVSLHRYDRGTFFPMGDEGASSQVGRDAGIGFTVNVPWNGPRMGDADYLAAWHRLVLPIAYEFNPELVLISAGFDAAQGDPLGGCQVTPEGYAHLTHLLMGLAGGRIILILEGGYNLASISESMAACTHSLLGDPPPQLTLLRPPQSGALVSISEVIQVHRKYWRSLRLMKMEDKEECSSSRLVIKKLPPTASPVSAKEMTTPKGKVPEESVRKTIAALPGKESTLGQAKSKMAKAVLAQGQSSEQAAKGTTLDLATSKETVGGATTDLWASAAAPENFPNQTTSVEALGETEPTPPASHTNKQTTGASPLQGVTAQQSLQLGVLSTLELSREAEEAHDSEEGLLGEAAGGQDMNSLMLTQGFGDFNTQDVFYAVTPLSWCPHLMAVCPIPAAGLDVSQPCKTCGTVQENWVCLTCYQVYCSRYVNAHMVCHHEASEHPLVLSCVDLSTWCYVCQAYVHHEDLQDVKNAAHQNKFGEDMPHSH

[2] = biological target: T2, Vitamin D3 receptor (Mus musculus) (UniProt P48281); assay: Agonist activity at VDR in mouse 4TO7 cells assessed as induction of Cyp24a1 gene at 0.1 to 10 uM measured after 24 hrs by RT-qPCR analysis; assay type: cell-based; details: filed as agonist, dose 0.1-10 µM
T2 sequence (whole entry): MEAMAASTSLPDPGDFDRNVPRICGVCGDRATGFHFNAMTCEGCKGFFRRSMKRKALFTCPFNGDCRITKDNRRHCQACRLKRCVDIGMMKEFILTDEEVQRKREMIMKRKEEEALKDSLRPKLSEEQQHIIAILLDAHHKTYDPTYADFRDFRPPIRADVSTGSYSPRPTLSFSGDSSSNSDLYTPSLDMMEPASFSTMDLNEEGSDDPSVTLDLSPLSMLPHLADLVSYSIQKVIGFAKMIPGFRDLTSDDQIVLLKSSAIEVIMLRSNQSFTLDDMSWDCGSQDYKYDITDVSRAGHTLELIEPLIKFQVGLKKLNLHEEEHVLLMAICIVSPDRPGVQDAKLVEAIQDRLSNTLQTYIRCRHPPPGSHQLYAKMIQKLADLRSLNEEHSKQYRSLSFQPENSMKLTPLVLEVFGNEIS

[3] = biological target: T2, Vitamin D3 receptor (Mus musculus); assay: Agonist activity at VDR in mouse 4T1 cells assessed as induction of Cyp24a1 gene at 0.1 to 10 uM measured after 24 hrs by RT-qPCR analysis; assay type: cell-based; details: filed as agonist, dose 0.1-10 µM
4TO7 [4] = assay: Inhibition of class 1 HDAC in mouse 4TO7 cells assessed as induction of H3K27 acetylation at 10 uM measured after 6 hrs by Western blot analysis; assay type: cell-based
4T1 [5] = details: Mus musculus, time 24.0 hrs
4TO7 [6] = assay: Inhibition of class 1 HDAC in mouse 4TO7 cells assessed as induction of H3K9 acetylation at 10 uM measured after 6 hrs by Western blot analysis; assay type: cell-based
B16-F10 [7] = assay: Antitumor activity against mouse B16-F10 cells implanted in C57BL/6 mouse assessed as reduction in tumor burden at 50 mg/kg, ip administered every second day for 18 days; assay type: functional, organism-based; details: time 18.0 day
[8] = Toxicity in mouse B16-F10 cells implanted C57BL/6 mouse assessed as effect on body weight at 50 mg/kg, ip administered daily for 28 days; assay type: organism-based; details: in vivo, time 28 day
[9] = Toxicity in mouse B16-F10 cells implanted C57BL/6 mouse at 50 mg/kg, ip administered daily for 28 days; assay type: organism-based; details: in vivo, time 28 day
Mus musculus [10] = assay: Immunomodulatory activity in mouse 4T1 cells implanted BALB/c mouse assessed as induction of Il1a gene expression at 0.2 mg/kg, ip administered daily for 18 days by RT-qPCR analysis; assay type: functional, organism-based; details: time 18.0 day
Mus musculus [11] = assay: Immunomodulatory activity in mouse 4T1 cells implanted BALB/c mouse assessed as reduction in Ccl20 gene expression at 0.2 mg/kg, ip administered daily for 18 days by RT-qPCR analysis; assay type: functional, organism-based; details: time 18.0 day
4T1 [12] = assay: Inhibition of class 1 HDAC in mouse 4T1 cells assessed as induction of H3K9 acetylation at 10 uM measured after 6 hrs by Western blot analysis; assay type: cell-based
Mus musculus [13] = assay: Immunomodulatory activity in mouse 4T1 cells implanted BALB/c mouse assessed as reduction in Ccl2 gene expression at 0.2 mg/kg, ip administered daily for 18 days by RT-qPCR analysis; assay type: functional, organism-based; details: time 18.0 day
4T1 [14] = assay: Antitumor activity against mouse 4T1 cells implanted in BALB/c mouse assessed as reduction in tumor burden at 0.2 mg/kg, ip administered daily for 18 days; assay type: functional, organism-based; details: time 18.0 day
[15] = Toxicity in mouse B16-F10 cells implanted C57BL/6 mouse assessed as effect on body weight at 0.2 mg/kg, ip administered daily for 28 days; assay type: organism-based; details: in vivo, time 28 day
[16] = Toxicity in mouse B16-F10 cells implanted C57BL/6 mouse at 0.2 mg/kg, ip administered daily for 28 days; assay type: organism-based; details: in vivo, time 28 day
B16-F10 [17] = assay: Antitumor activity against mouse B16-F10 cells implanted in C57BL/6 mouse assessed as reduction in tumor burden at 0.2 mg/kg, ip administered every second day for 18 days; assay type: functional, organism-based; details: time 18.0 day
[18] = biological target: T1, Protein deacetylase HDAC6 (Mus musculus); assay: Inhibition of HDAC6 in mouse 4T1 cells assessed as induction of tubulin acetylation at 10 uM measured after 6 hrs by Western blot analysis; assay type: cell-based
Mus musculus [19] = assay: Immunomodulatory activity in mouse 4T1 cells implanted BALB/c mouse assessed as reduction in Ccl5 gene expression at 0.2 mg/kg, ip administered daily for 18 days by RT-qPCR analysis; assay type: functional, organism-based; details: time 18.0 day
[20] = Toxicity in 4T1 cells implanted BALB/c mouse assessed as stress at 0.2 mg/kg, ip administered daily for 18 days; assay type: organism-based; details: in vivo, 432 h, time 18 day
[21] = Toxicity in 4T1 cells implanted BALB/c mouse assessed as body weight loss at 0.2 mg/kg, ip administered daily for 18 days; assay type: organism-based; details: in vivo, 432 h, time 18 day
Mus musculus [22] = assay: Immunomodulatory activity in mouse 4T1 cells implanted BALB/c mouse assessed as reduction in Cxcl10 gene expression at 0.2 mg/kg, ip administered daily for 18 days by RT-qPCR analysis; assay type: functional, organism-based; details: time 18.0 day
B16-F10 [23] = assay: Cytotoxicity against mouse B16-F10 cells assessed as reduction in cell viability at 0.01 to 100 uM measured after 24 hrs by RealTime-glo cell viability assay; assay type: functional, cell-based; details: dose 0.01-100 µM
4T1 [24] = assay: Inhibition of class 1 HDAC in mouse 4T1 cells assessed as induction of H3K27 acetylation at 10 uM measured after 6 hrs by Western blot analysis; assay type: cell-based
B16-F10 [25] = assay: Inhibition of class 1 HDAC in mouse B16-F10 cells assessed as induction of H3K27 acetylation at 10 uM measured after 6 hrs by Western blot analysis; assay type: cell-based
B16-F10 [26] = assay: Inhibition of class 1 HDAC in mouse B16-F10 cells assessed as induction of H3K9 acetylation at 10 uM measured after 6 hrs by Western blot analysis; assay type: cell-based
[27] = biological target: T1, Protein deacetylase HDAC6 (Mus musculus); assay: Inhibition of HDAC6 in mouse B16-F10 cells assessed as induction of tubulin acetylation at 10 uM measured after 6 hrs by Western blot analysis; assay type: cell-based

Q: Which results are given for `CCC(CC)(c1ccc(C(=O)NCCCC(=O)NO)cc1)c1ccc(OCC(O)C(C)(C)C)c(C)n1` (configuration not stated)?
A: inhibition [1]: Active; Activity [2]: Active; Activity [3]: Active; Did Not Appear To Be A Full Agonist; inhibition (4TO7 [4]): Active; Activity (4T1 [5]): Active; inhibition (4TO7 [6]): Active

Q: With `Nc1ccn([C@@H]2O[C@H](CO)[C@@H](O)C2(F)F)c(=O)n1` [GEMCITABINE] as the compound, how does the Activity (B16-F10 [7]) read?
A: Active

Q: What about the Activity [8] of the same compound?
A: Non-toxic

Q: What about the Activity [9] of the same compound?
A: Non-toxic

Q: With `CCC(CC)(c1ccc(OCCCCCC(=O)NO)cc1)c1ccc(OCC(O)C(C)(C)C)c(C)n1` (configuration not stated) as the compound, how does the Activity (Mus musculus [10]) read?
A: Active

Q: And the Activity (Mus musculus [11])?
A: Active

Q: And the inhibition (4T1 [12])?
A: Active

Q: And the Activity (Mus musculus [13])?
A: Active

Q: And the Activity (4T1 [14])?
A: Active

Q: And the Activity [2]?
A: Active

Q: And the Activity [3]?
A: Active

Q: And the Activity [15]?
A: Non-toxic

Q: What about the Activity [16] of the same compound?
A: Non-toxic

Q: And the Activity (B16-F10 [17])?
A: Active

Q: What about the inhibition [18] of the same compound?
A: Active

Q: And the Activity (Mus musculus [19])?
A: Active

Q: And the Activity [20]?
A: Non-toxic

Q: And the Activity [21]?
A: Non-toxic

Q: What about the Activity (Mus musculus [22]) of the same compound?
A: Active

Q: And the Activity (B16-F10 [23])?
A: Active

Q: What about the inhibition (4T1 [24]) of the same compound?
A: Active

Q: Which Activity [2] does the source give for `CCC(CC)(c1ccc(C(=O)NCCCCCC(=O)NO)cc1)c1ccc(OCC(O)C(C)(C)C)c(C)c1` (configuration not stated) here?
A: Active

Q: And the Activity [3]?
A: Active

Q: What about the inhibition (B16-F10 [25]) of the same compound?
A: Active; High Levels Of Acetylation Observed

Q: And the inhibition (B16-F10 [26])?
A: Active; High Levels Of Acetylation Observed

Q: And the inhibition [27]?
A: Active; High Levels Of Acetylation Observed

Q: For `CCC(CC)(c1ccc(C(=O)NCCCCCC(=O)NO)cc1)c1ccc(OCC(O)C(C)(C)C)c(C)n1` (configuration not stated), which inhibition [1] is on record?
A: Active

Q: And the Activity [2]?
A: Active

Q: And the Activity [3]?
A: Active; Did Not Appear To Be A Full Agonist

Q: What about the inhibition (4TO7 [4]) of the same compound?
A: Active

Q: What about the Activity (4T1 [5]) of the same compound?
A: Active

Q: And the inhibition (4TO7 [6])?
A: Active
